Our source for the T/C values is PubChem BioAssay AID256 (DTP/NCI, 2004).

In the experiment the test system is CD2F1 mice, L1210 leukemia ip, survival T/C. The experiment can be described thus: NCI In Vivo Anticancer Drug Screen. Data for tumor model L1210 Leukemia (intraperitoneal) in CD2F1 (CDF1) mice. As to conditions: higher = longer survival. Put shortly:
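Activity against a transplanted murine tumor was judged by comparing the compound group with a vehicle group. The outcome in the treated animals was divided by that in the controls.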

Where [1] appears, read: endpoint: mean survival time, dose: 100.0 mg/kg/injection, schedule: Q01DX001 (ip), vehicle: saline with Tween-80.
Where [2] appears, read: endpoint: mean survival time, dose: 200.0 mg/kg/injection, schedule: Q01DX001 (ip), vehicle: saline with Tween-80.
Setting [3] is: endpoint: mean survival time, dose: 100.0 mg/kg/injection, schedule: Q04DX003 (ip), vehicle: saline with Tween-80.
Setting [4] is: endpoint: mean survival time, dose: 400.0 mg/kg/injection, schedule: Q01DX001 (ip), vehicle: saline with Tween-80.
Setting [5] is: endpoint: mean survival time, dose: 25.0 mg/kg/injection, schedule: Q01DX009 (ip), vehicle: saline with Tween-80.
Setting [6] is: endpoint: mean survival time, dose: 25.0 mg/kg/injection, schedule: Q04DX003 (ip), vehicle: saline with Tween-80.
The mark [7] stands for this setting: endpoint: mean survival time, dose: 50.0 mg/kg/injection, schedule: Q01DX009 (ip), vehicle: saline with Tween-80.
[8] abbreviates: endpoint: mean survival time, dose: 50.0 mg/kg/injection, schedule: Q04DX003 (ip), vehicle: saline with Tween-80.
The mark [9] stands for this setting: endpoint: mean survival time, dose: 100.0 mg/kg/injection, schedule: Q01DX009 (ip), vehicle: saline with Tween-80.

“And” between values parts separate entries of the source, which are not always exact repeats. Equal values may be shown once. Toxic doses and inconclusive results are not listed.

As to `CN(C)CC(=O)c1ccc(O)c(O)c1`, the T/C is, setting by setting: (endpoint: mean survival time, dose: 16.0 mg/kg/injection, schedule: Q03HX008 (ip), vehicle: saline) 95 % of control; (endpoint: mean survival time, dose: 16.0 mg/kg/injection, schedule: Q03HX016 (ip), vehicle: saline) 97 % of control; (endpoint: mean survival time, dose: 32.0 mg/kg/injection, schedule: Q03HX008 (ip), vehicle: saline) 96 % of control; (endpoint: mean survival time, dose: 32.0 mg/kg/injection, schedule: Q03HX016 (ip), vehicle: saline) 106 % of control; (endpoint: mean survival time, dose: 64.0 mg/kg/injection, schedule: Q01DX009 (sc), vehicle: saline) 86 % of control; (endpoint: mean survival time, dose: 64.0 mg/kg/injection, schedule: Q03HX008 (ip), vehicle: saline) 110 % of control. Further, the T/C is, setting by setting: (endpoint: mean survival time, dose: 64.0 mg/kg/injection, schedule: Q03HX016 (ip), vehicle: saline) 111 % of control; (endpoint: mean survival time, dose: 64.0 mg/kg/injection, schedule: Q04DX003 (ip), vehicle: saline) 101 % of control; (endpoint: mean survival time, dose: 128.0 mg/kg/injection, schedule: Q01DX001 (oral), vehicle: saline) 98 % of control; (endpoint: mean survival time, dose: 128.0 mg/kg/injection, schedule: Q01DX001 (sc), vehicle: saline) 98 % of control; (endpoint: mean survival time, dose: 128.0 mg/kg/injection, schedule: Q01DX009 (oral), vehicle: saline) 93 % of control; (endpoint: mean survival time, dose: 128.0 mg/kg/injection, schedule: Q01DX009 (sc), vehicle: saline) 86 % of control. Also, the T/C (endpoint: mean survival time, dose: 128.0 mg/kg/injection, schedule: Q03HX008 (ip), vehicle: saline) is 118 % of control; the T/C (endpoint: mean survival time, dose: 128.0 mg/kg/injection, schedule: Q03HX016 (ip), vehicle: saline) was 122 % of control; the T/C (endpoint: mean survival time, dose: 128.0 mg/kg/injection, schedule: Q04DX003 (ip), vehicle: saline) is 107 % of control; the T/C (endpoint: mean survival time, dose: 128.0 mg/kg/injection, schedule: Q08DX002 (ip), vehicle: saline) is 105 % of control; the T/C (endpoint: mean survival time, dose: 256.0 mg/kg/injection, schedule: Q01DX001 (oral), vehicle: saline) is 101 % of control; the T/C (endpoint: mean survival time, dose: 256.0 mg/kg/injection, schedule: Q01DX001 (sc), vehicle: saline) was 96 % of control. Further, the T/C is 92 % of control (endpoint: mean survival time, dose: 256.0 mg/kg/injection, schedule: Q01DX009 (oral), vehicle: saline); 86 % of control (endpoint: mean survival time, dose: 256.0 mg/kg/injection, schedule: Q01DX009 (sc), vehicle: saline); 107 % of control (endpoint: mean survival time, dose: 256.0 mg/kg/injection, schedule: Q04DX003 (ip), vehicle: saline); 103 % of control (endpoint: mean survival time, dose: 256.0 mg/kg/injection, schedule: Q08DX002 (ip), vehicle: saline); 98 % of control (endpoint: mean survival time, dose: 512.0 mg/kg/injection, schedule: Q01DX001 (oral), vehicle: saline); 95 % of control (endpoint: mean survival time, dose: 512.0 mg/kg/injection, schedule: Q01DX001 (sc), vehicle: saline). The T/C (endpoint: mean survival time, dose: 512.0 mg/kg/injection, schedule: Q01DX009 (oral), vehicle: saline) is 91 % of control; the T/C (endpoint: mean survival time, dose: 512.0 mg/kg/injection, schedule: Q01DX009 (sc), vehicle: saline) was 86 % of control; the T/C (endpoint: mean survival time, dose: 512.0 mg/kg/injection, schedule: Q04DX003 (ip), vehicle: saline) is 107 % of control; the T/C (endpoint: mean survival time, dose: 512.0 mg/kg/injection, schedule: Q08DX002 (ip), vehicle: saline) is 105 % of control; the T/C (endpoint: mean survival time, dose: 1024.0 mg/kg/injection, schedule: Q01DX001 (oral), vehicle: saline) was 96 % of control; the T/C (endpoint: mean survival time, dose: 1024.0 mg/kg/injection, schedule: Q01DX001 (sc), vehicle: saline) was 107 % of control. For the same compound, the T/C is, setting by setting: (endpoint: mean survival time, dose: 1024.0 mg/kg/injection, schedule: Q01DX009 (oral), vehicle: saline) 93 % of control; (endpoint: mean survival time, dose: 1024.0 mg/kg/injection, schedule: Q08DX002 (ip), vehicle: saline) 110 % of control.
`NC(CCNCCc1ccccc1)CNCCc1ccccc1` (centres undefined): the T/C is 107 % of control (endpoint: mean survival time, dose: 75.0 mg/kg/injection, schedule: Q01DX001 (ip), vehicle: saline) and 92 % of control (endpoint: mean survival time, dose: 150.0 mg/kg/injection, schedule: Q01DX001 (ip), vehicle: saline).
As to `COC(=O)C1C2CCC(C2)C1C(=O)O` (centres undefined), the T/C is, setting by setting: (endpoint: mean survival time, dose: 100.0 mg/kg/injection, schedule: Q01DX009 (ip), vehicle: saline) 96 % of control; (endpoint: mean survival time, dose: 200.0 mg/kg/injection, schedule: Q01DX009 (ip), vehicle: saline) 96 % of control; (endpoint: mean survival time, dose: 400.0 mg/kg/injection, schedule: Q01DX009 (ip), vehicle: saline) 94 % of control.
As to `COC1OC(CO)C(O)C1n1cnc2c(=O)[nH]c(N)nc21` (centres undefined), the T/C (endpoint: mean survival time, dose: 50.0 mg/kg/injection, schedule: Q01DX001 (ip), vehicle: saline with Tween-80) is 97 % of control; the T/C under setting [1] is 95 % of control; the T/C under setting [2] is 97 % of control.
Take `C/C(Cl)=C\CNc1ncnc2c1ncn2C1OC(CO)C(O)C1O` (centres undefined): the T/C is 103 % of control (endpoint: mean survival time, dose: 6.25 mg/kg/injection, schedule: Q01DX005 (ip), vehicle: distilled water + Tween-80); 101 % of control (endpoint: mean survival time, dose: 12.5 mg/kg/injection, schedule: Q01DX005 (ip), vehicle: distilled water + Tween-80); 91 % of control (endpoint: mean survival time, dose: 25.0 mg/kg/injection, schedule: Q01DX005 (ip), vehicle: distilled water + Tween-80); 100 % of control (endpoint: mean survival time, dose: 50.0 mg/kg/injection, schedule: Q01DX005 (ip), vehicle: distilled water + Tween-80); 101 % of control (endpoint: mean survival time, dose: 100.0 mg/kg/injection, schedule: Q01DX005 (ip), vehicle: distilled water + Tween-80).
`ClC(Cl)(Cl)C1CCC(Br)C2CCCCC21` (centres undefined): the T/C runs as follows: under setting [3], 92 % of control; (endpoint: mean survival time, dose: 200.0 mg/kg/injection, schedule: Q04DX003 (ip), vehicle: saline with Tween-80) 100 % of control; (endpoint: mean survival time, dose: 400.0 mg/kg/injection, schedule: Q04DX003 (ip), vehicle: saline with Tween-80) 96 % of control.
As to `OC1CCC2CCC1C2` (centres undefined), the T/C was 102 % of control under setting [1], 104 % of control under setting [2] and 101 % of control under setting [4].
For `Cc1ccc(S(=O)(=O)OC2(c3ccc(C(F)(F)F)cc3)C3CCC2CC3)cc1` (centres undefined), the T/C (endpoint: mean survival time, dose: 12.5 mg/kg/injection, schedule: Q04DX002 (ip), vehicle: saline with Tween-80) is 104 % of control; the T/C (endpoint: mean survival time, dose: 25.0 mg/kg/injection, schedule: Q04DX002 (ip), vehicle: saline with Tween-80) was 101 % of control; the T/C (endpoint: mean survival time, dose: 50.0 mg/kg/injection, schedule: Q04DX002 (ip), vehicle: saline with Tween-80) was 104 % of control.
Consider `Cc1ccc(S(=O)(=O)OCC(O)C(O)C(O)C(O)CO[N+](=O)[O-])cc1` (centres undefined), for which the T/C by setting is: under setting [1], 101 % of control; under setting [2], 101 % of control; under setting [4], 101 % of control.
Turning to `Cc1ccc(C(C)C)c(O)c1O`, the T/C under setting [5] is 94 % of control; the T/C under setting [6] is 96 % of control; the T/C under setting [7] was 103 % of control; the T/C under setting [8] was 98 % of control; the T/C under setting [9] is 97 % of control; the T/C under setting [3] is 94 % of control.
Turning to `CC1(C)C(C(=O)/C=C/c2ccccc2)C1[N+](=O)[O-]` (centres undefined), the T/C (endpoint: mean survival time, dose: 100.0 mg/kg/injection, schedule: Q04DX002 (ip), vehicle: other) is 97 % of control; the T/C (endpoint: mean survival time, dose: 200.0 mg/kg/injection, schedule: Q04DX002 (ip), vehicle: other) was 97 % of control; the T/C (endpoint: mean survival time, dose: 400.0 mg/kg/injection, schedule: Q04DX002 (ip), vehicle: other) is 97 % of control.
On to `NC(=O)c1c[se]c(C2OC(CO)C(O)C2O)n1` (centres undefined), for which the T/C (endpoint: median survival time, dose: 12.5 mg/kg/injection, schedule: Q01DX009 (ip), vehicle: water) was 174 % of control and 187 % of control; the T/C (endpoint: median survival time, dose: 25.0 mg/kg/injection, schedule: Q01DX009 (ip), vehicle: water) is 170 % of control and 193 % of control; the T/C (endpoint: median survival time, dose: 50.0 mg/kg/injection, schedule: Q01DX009 (ip), vehicle: water) was 206 % of control and 233 % of control; the T/C (endpoint: median survival time, dose: 100.0 mg/kg/injection, schedule: Q01DX009 (ip), vehicle: water) is 216 % of control and 233 % of control.
Turning to `CCCCCCCCCCCCCCCCOP(=O)(O)OCCCCCCCCCCCCCCCC`, the T/C under setting [5] was 96 % of control, the T/C under setting [7] was 102 % of control and the T/C under setting [9] was 95 % of control.
Take `CN(C)Cc1cc(Cl)cc(CN(C)C)c1O`: the T/C reads like this: under setting [6], 105 % of control; under setting [8], 97 % of control; under setting [3], 101 % of control.
`CC(C)(c1ccccn1)C(C)(C)c1ccccn1`: the T/C is, setting by setting: under setting [7], 96 % of control; under setting [9], 104 % of control; (endpoint: mean survival time, dose: 200.0 mg/kg/injection, schedule: Q01DX009 (ip), vehicle: saline with Tween-80) 100 % of control.
